Reference: patent US20260216346A1, “COMPOUND, NANOPARTICLES, MEDICINE, AND METHOD FOR PRODUCING NANOPARTICLES” (priority 2022, published 2026)
Entries after “also recorded” stand apart in the source; their conditions may differ.

What was measured:
[1] = Drug release test in PBS under reduced glutathione treatment; type: physicochemical; conditions: nanoparticles 50 μM, PBS(−)/EtOH (7/3) pH 7.4 with 10 mM reduced GSH, 37° C., 1, 6, 24 or 48 hours, HPLC
Method: In the present test, the release of SN-38 from compound (1-1) and compounds (2-1) to (2-3) in PBS to which the reduced GSH was added was evaluated.
A reaction solution was prepared by adding the aqueous dispersion liquid (50 μM, 500 μL) of the nanoparticles of compound (1-1) or the aqueous dispersion liquid (50 μM, 500 μL) of the nanoparticles of any one of compounds (2-1) to (2-3) to 500 μL of PBS(−)/EtOH (7/3) (pH: 7.4) to which 10 mM of reduced glutathione (GSH) had been added.
The above-described reaction solution was incubated at 37° C. for 1 hour, 6 hours, 24 hours, or 48 hours. 200 μL of the reaction solution was collected after the incubation. The collected reaction solution was mixed with 800 μL of a 3% acetic acid solution of acetonitrile/methanol (1/1). The obtained mixed solution was analyzed by high-performance liquid chromatography (detection wavelength: 365 nm) as an analysis target sample.

[2] = tested on: human breast cancer cell line MCF-7; experiment: In vitro activity test: cell viability, Cell Counting Kit-8; type: cell-based; conditions: nanoparticle dispersion, 0.04 to 10 µM (in terms of SN-38), 48 hours, FIG. 2
Method: A human breast cancer cell line MCF-7 was suspended in Dulbecco's modified Eagle's medium (DMEM) to which 10% fetal bovine serum (FBS) was added, thereby preparing a cell suspension of 2×10^5 cells/mL. The above-described cell suspension was seeded on a 96-well plate at 100 μL per well. The next day, the aqueous dispersion liquid of the nanoparticles of compound (1-1), the aqueous dispersion liquid of the nanoparticles of compound (2-1), or the aqueous dispersion liquid of the nanoparticles of SN-38, prepared as described above, was added to the MCF-7 cell culture solution so that the concentration thereof was 0.04 to 10 µM (in terms of SN-38). Thereafter, the cells were cultured at 37° C. and 5% CO2 for 48 hours. Thereafter, cell viability was measured by a colorimetric method using Cell Counting Kit-8 (manufactured by DOJINDO LABORATORIES.) and a microplate reader.

[3] = Drug release test in PBS under reduced dithiothreitol treatment (1); type: physicochemical; conditions: nanoparticles 5 μM, PBS (-) pH 7.4 with 10 mM reduced DTT, 37° C., 1 hour or 24 hours, HPLC
Method: In the present test, the release of SN-38 from compound (1-1) and compound (2-1) in PBS to which reduced DTT was added was evaluated.
A solution was prepared by adding an aqueous dispersion liquid (5 μM, 500 μL) of nanoparticles of compound (1-1) or an aqueous dispersion liquid (5 μM, 500 μL) of nanoparticles of compound (2-1) to 500 µL of PBS (-) to which 10 mM of reduced dithiothreitol (DTT) had been added. “PBS (-)” used hereinafter is phosphate-buffered saline (pH: 7.4) containing NaCl (137 mM), KCl (2.7 mM), Na2HPO4 (10 mM), and KH2PO4 (1.76 mM).
The above-described reaction solution was incubated at 37° C. for 1 hour or 24 hours. 200 μL of the reaction solution after incubation was collected. The collected reaction solution was mixed with 800 μL of a 3% acetic acid solution of acetonitrile/methanol (1/1). The obtained mixed solution was analyzed by high-performance liquid chromatography (detection wavelength: 365 nm) as an analysis target sample.

[4] = Particle diameter of nanoparticles by SEM and DLS; type: physicochemical; conditions: aqueous dispersion liquid, 0.05 mM
Method: 100 μL of a dimethyl sulfoxide solution of compound (1-1), prepared at 5 mM, was injected into 10 mL of water at room temperature using a syringe, and the mixture was stirred at 1,500 rpm for 2 seconds to obtain an aqueous dispersion liquid of nanoparticles. The final concentration of compound (1-1) in the aqueous dispersion liquid of the nanoparticles was 0.05 mM. It was confirmed by SEM and DLS that a particle diameter thereof was approximately 100 nm. […] A ClogP of compound (1-1) was 5.92.

For `CCc1c2c(nc3ccc(OC(=O)C(C)(C)CCSSCCC(C)(C)C(=O)Oc4ccc5nc6c(c(CC)c5c4)Cn4c-6cc5c(c4=O)COC(=O)[C@]5(O)CC)cc13)-c1cc3c(c(=O)n1C2)COC(=O)[C@]3(O)CC` [Compound (1-1)], the “release of SN-38” value [1] was “compound (1-1) was reduced and SN-38 was increased with the passage of time”, the “cell viability of MCF-7” value [2] was “higher cell viability of MCF-7 compared with SN-38; also recorded: lower than that of compound (2-1)” and the “release of SN-38” value [3] was “SN-38 was released”. The “particle diameter of nanoparticles” value [4] was “approximately 100 nm”.
